Measurements: article PMC9882606, “Rationally designed inhibitors of the Musashi protein-RNA interaction by hotspot mimicry” (Research Square, 2023)

What was measured:
[1] = tested on: K562 cells; assay: Cell growth/survival, K562; assay type: cell-based, human
Text: It is difficult to determine precisely why Ro and R12–8–44–3 have such dramatically different behavior in this assay: one possibility is that Ro, a repurposed compound originally reported for activity unrelated to MSI2, may exert its cytotoxic effect in these cell lines through molecular targets unrelated to MSI2.

[2] = target: T1, MSI1 RRM1 (Homo sapiens, UniProt O43347); assay: Differential Scanning Fluorimetry (DSF); assay type: binding; details: increasing compound dose
T1 sequence (O43347 20-110 limits assumed): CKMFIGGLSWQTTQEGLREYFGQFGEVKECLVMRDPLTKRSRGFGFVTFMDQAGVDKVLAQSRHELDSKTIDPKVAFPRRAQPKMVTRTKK
Text: Out of concern that R12–7’s activity may be associated with compound aggregation, we elected to continue with optimization of R12–8 (Figure 2b).
To further characterize R12–8–44–3, we applied differential scanning fluorimetry (DSF) as an orthogonal secondary assay. […] While this could be a sign of apparent inhibition occurring through aggregation, there are also legitimate inhibitors that reduce their target protein’s melting temperature. An alternate explanation could simply be that MSI1’s folding landscape is not simply two-state, and that a partially-folded intermediate stabilized by R12–8–44–3 affects the unfolding transition.

[3] = tested on: MSI2; assay: Immunoblot of cellular MSI2 protein levels in PC9 cells; assay type: cell-based, human; details: PC9, 20 μM compound for 1, 3, 6, 24, or 48 hours
Text: To explore the effect of these MSI2 inhibitors in a cancer-relevant cellular context, we selected two MSI2-dependent cancer cell lines: non-small cell lung cancer cell line PC9 and leukemia cell line K562 [73, 98–101]. Upon treatment of PC9 cells with Ro, R12–8–44–3, or negative control R12-neg, we found at multiple time points that cellular MSI2 protein levels were unchanged (Figure 6a). To confirm target engagement, we therefore adapted the cellular thermal shift assay (CETSA). To determine experimental conditions, we first harvested cells and incubated at increasing temperatures; we then removed aggregated protein by centrifugation and used Western blotting to probe the amount of MSI2 remaining in the soluble fraction (Figure 6b, Figure S9). Having established 49 °C as the midpoint of the transition under these (non-equilibrium) conditions, we then treated cells with our candidate MSI2 inhibitor for 3 h, and heated to 49 °C.
Figure 6: Direct cellular engagement of MSI2 interaction by R12–44–3. (A) Immunoblot from PC9 cells treated with Ro (positive control), R12-neg (negative control), or R12–8–44–3. Cells were treated with 20 μM compound for 1, 3, 6, 24, or 48 hours. MSI2 protein abundance was then quantified and normalized to untreated sample. One representative image is shown; quantification is presented as the average ± S.E.M. from 3 independent replicates. (B) Thermal-induced aggregation of cellular MSI2 in the PC9 cell line. Cells were briefly incubated at temperatures between 40 °C to 67 °C, then centrifuged and the amount of MSI2 remaining in the soluble fraction was quantified by Western blotting. […] One representative image is shown; quantification is presented as the average ± S.E.M. from 3 independent replicates, normalized first to beta-actin and then to DMSO control. […] One representative image is shown; quantification is presented as the average ± S.E.M. from 3 independent replicates, normalized first to beta-actin and then to DMSO control. […]

[4] = target: MSI2 (Homo sapiens, UniProt Q96DH6); assay: MS2-TRAP aptamer pull-down reporter assay in HEK293 cells; assay type: cell-based; parameters: HEK293 cells (with a high baseline MSI2 expression); endogenous in cells; host or cells: HEK293; details: HEK293, 24 h treatment
Sequence of MSI2 (Homo sapiens, UniProt Q96DH6) (Q96DH6 whole entry): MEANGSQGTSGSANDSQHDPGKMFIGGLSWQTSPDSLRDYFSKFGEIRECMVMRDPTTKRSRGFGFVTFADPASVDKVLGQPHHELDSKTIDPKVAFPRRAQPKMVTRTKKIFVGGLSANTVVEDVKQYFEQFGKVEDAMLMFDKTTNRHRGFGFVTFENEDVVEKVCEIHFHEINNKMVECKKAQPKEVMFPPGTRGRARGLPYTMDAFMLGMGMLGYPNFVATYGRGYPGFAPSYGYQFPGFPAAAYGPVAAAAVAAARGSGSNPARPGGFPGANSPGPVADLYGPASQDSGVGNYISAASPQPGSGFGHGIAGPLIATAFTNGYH
Text: Figure 5: Characterization of R12–8–44–3 in a reporter cell line. […] As a positive control, Ro 08–2750 (aka “Ro”) is also included in these studies. (B) Schematic of reporter assay. HEK293 cells are transfected with a plasmid encoding an arbitrary gene (Luc) with UAG repeats (to recruit MSI2) and MS2 repeats (for pulldown) appended to its 3’ UTR. The same vector also includes FLAG-labeled MS2-BP. Upon anti-FLAG immunoprecipitation (IP), the FLAG-labeled MS2-BP allows purification of the Luc mRNA along with any associated factors. (C) Prior to IP, cells express Luc mRNA to a similar extent irrespective of whether they were treated with DMSO, R12-neg, R12–8–44–3, or Ro. (D) Prior to IP (“input”), MSI2 is detected in all samples to a similar extent (as is KU-86 loading control). After pulldown of Luc mRNA, MSI2 is found associated with the mRNA in cells treated with DMSO or R12-neg, but not in cells that had been treated with R12–8–44–3 or Ro. Representative image is shown; quantification is plotted as the average of 2 independent experiments ± S.E.M. Statistical analysis was performed using unpaired two tailed t-test, with * indicating p<0.05. Uncropped Western blots from this experiment are provided as Figure S8.
To determine whether inhibition of MSI1/MSI2 by R12–8–44–3 would apply in a cellular context, we adapted an aptamer pull-down reporter assay that we previously used to validate candidate Musashi target genes. Briefly, our approach is a variation of the MS2-TRAP (MS2-tagged RNA affinity purification) method, which uses bacteriophage protein MS2-BP to extract from cells any factors that associate with RNAs containing a specific stem-loop structure (MS2) from the phage genome. Here, we designed an mRNA construct that would include a series of MS2 hairpins and also a MSI2 recognition sequence. We transfected this construct into cells that also express FLAG-tagged MS2-BP (a protein unrelated to MSI2). By affinity purification using the FLAG tag, proteins bound to the designed mRNA can be extracted from cells.
To test for inhibition of MSI2 in cells, we transfected HEK293 cells (with a high baseline MSI2 expression), with the pMS2-LUC-3’UTR from our previous studies. This vector appends onto the 3’UTR of an arbitrary gene (in this case luciferase) two key elements: UAG-motifs comprising a MSI2 recognition sequence, and a series of five MS2 hairpins. The same vector also encodes the FLAG-MS2-BP fusion needed for affinity purification (Figure 5b). Cells were then treated with each compound of interest for 24 h, and then the cells were subsequently harvested and used for anti-FLAG immunoprecipitation. […] Using qPCR we evaluated the amount of Luc mRNA in cells treated with R12–8–44–3, R12-neg, or Ro, and found this to be unchanged (Figure 5c).

- MSI2 purified with reporter mRNA (anti-FLAG pulldown) [4]: much less MSI2 is purified
- total amount of MSI2 in cells ([4]; input prior to IP): unaffected
- amount of Luc mRNA in cells (qPCR) ([4]; prior to IP): unchanged
Structure (SMILES): Cc1cc(C(=O)OCc2nc(N)c3c(C)c(C)sc3n2)c(N)cc1F [R12–8–44–3]
- cell growth/survival [1]: results in alignment with our observations from PC9 cells
- change of the protein's melting temperature [2]: monotonically decreased MSI1’s melting temperature
- cellular MSI2 protein levels [3]: unchanged
